Here are results for three compounds from PMC3984011 (Journal of medicinal chemistry, 2013).

What all share (assay type): cell-based
Assay [1] concerns the target T1, DAGLβ (diacylglycerol lipase-β) (Mus musculus, UniProt Q91WC9).
T1 sequence (Q91WC9 1-669): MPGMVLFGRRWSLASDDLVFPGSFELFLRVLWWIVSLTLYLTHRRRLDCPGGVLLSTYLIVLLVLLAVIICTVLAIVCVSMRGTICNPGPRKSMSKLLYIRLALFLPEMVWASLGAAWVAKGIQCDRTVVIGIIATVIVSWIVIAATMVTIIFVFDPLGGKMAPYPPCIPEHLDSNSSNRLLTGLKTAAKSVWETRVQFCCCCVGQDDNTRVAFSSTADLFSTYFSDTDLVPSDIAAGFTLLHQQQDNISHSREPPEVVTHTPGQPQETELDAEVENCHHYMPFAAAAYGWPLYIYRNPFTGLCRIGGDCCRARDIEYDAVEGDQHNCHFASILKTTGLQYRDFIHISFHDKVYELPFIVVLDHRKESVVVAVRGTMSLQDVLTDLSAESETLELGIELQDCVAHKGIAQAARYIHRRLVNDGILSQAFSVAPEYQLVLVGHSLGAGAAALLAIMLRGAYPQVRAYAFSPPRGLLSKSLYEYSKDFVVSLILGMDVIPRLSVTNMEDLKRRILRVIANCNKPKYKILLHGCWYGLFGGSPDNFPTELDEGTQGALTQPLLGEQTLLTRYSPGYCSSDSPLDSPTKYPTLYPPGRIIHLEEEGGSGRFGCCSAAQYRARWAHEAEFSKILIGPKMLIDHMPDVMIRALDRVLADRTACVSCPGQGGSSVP
Put plainly: gel-based competitive ABPP, DAGLβ-HEK293T lysate, probe […]. The note with it: read-out: DAGLβ % inhibition (100 nM).

Assay [2] has as its target T1, DAGLβ (diacylglycerol lipase-β). Put plainly: competitive ABPP-SILAC in Neuro2A. Conditions: N2a, read-out: % inhibition at 20 μM.
Assay [3] has the same target. Put plainly: gel-based competitive ABPP, DAGLβ-HEK293T membrane lysate, probe […]. The note with it: read-out: DAGLβ % inhibition (100 nM).

Turning to `COc1ccccc1-c1ccc(-c2cn(C(=O)N3CCCCC3Cc3ccccc3)nn2)cc1` (racemic) [compound 27, KT172], the inhibition at 0.1 µM in assay [1] was 55.3%.
Regarding `Cc1cc(C)n2c1C=C1C=CC(CCC(=O)NCCCCCN(CCc3ccccc3)C(=O)n3cc(-c4ccc(OC(F)(F)F)cc4)nn3)=[N+]1[B-]2(F)F` [compound 38, HT-01], in assay [2], the inhibition at 20 µM was over 80%.
For `O=C(N1CCCCC1Cc1ccccc1)n1cc(-c2ccc(-c3ccccc3)cc2)nn1` (stereo not drawn) [compound 11, KT109], the inhibition at 0.1 µM in assay [3] came out at 60.8%.

As a reminder, the inhibition is the share of the control response that was lost under treatment.
